# Earlier results as cited in publication PMC4052326, “Alterporriol-Type Dimers from the Mangrove Endophytic Fungus, Alternaria sp. (SK11), and Their MptpB Inhibitions” (Marine Drugs, 2014).
# Tested on: clinical multidrug-resistant M. tuberculosis strains
# Conditions: result in words; cited from earlier work
substance,measurement,value
4-deoxybostrycin,inhibition against some clinical multidrug-resistant M. tuberculosis strains,good inhibition
